Results reported in patent publication US20110177054A1, “USE OF ENDO-LYSOSOMAL SYSTEM AND SECRETED VESICLES (EXOSOME-LIKE) IN TREATMENTS AND DIAGNOSTICS BASED ON SMALL RNA AND EXPERIMENTAL STUDY OF SMALL RNA” (priority 2008, published 2011).

Legend:
BIG2 = molecular target: T1, BIG2 (Homo sapiens, UniProt Q9Y6D5); assay: Exosome release after RNAi of BIG2 (protein in purified exosome pellets); type: cell-based
T1 construct: endogenous in cells; host or cells: Mono-Mac6 monocytic cells
Method: FIG. 5: Differential centrifugation enriches exosomes greatly. (A) Western blot of 50 μg of cell or exosome lysate with markers of exosomes (CD63, Tfr R, or Ub). (B) Cell counts and total protein quantitation of exosome pellets 36 h after transfection of cells with siRNA targeting BIG2 or control. (C) Electron microscopy of resuspended exosome pellets after uranyl acetate staining. (D) Dynamic light scattering analysis of purified exosome pellets resuspended in PBS (Phosphate buffered saline). Top graph represents five sets of measurements as size in nm (x-axis) as a function of relative number (y-axis) of particles detected. Bottom graph represents size in nm (x-axis) as a function of volume (y-axis). Measurements by volume exponentially amplify the representation of larger particles present.
FIG. 9: Purified exosomes are enriched in GW182, but not Dcp1a or Ge-1. (a) Equal amounts of proteins from exosomes and cells were analyzed by western blotting for exosome-enriched protein, CD63. Electron microscopy of resuspended exosome pellets. […] Error bars, SEM of five measurements. (c) RNAi of BIG2 reduces the recovery of proteins in exosome preparations (paired t-test, n=4, p=0.0194, a=0.05). […] (d) Equal amounts of proteins from exosomes and whole cells were analyzed by western blotting. […]

[1] = system: miR-K12-4 target reporter; assay: Intercellular transfer of miR-K12-4 by exosomes (psiCHECK dual luciferase reporter in target cells); type: cell-based; settings: BIG2 siRNA delivered to exosome producing cells simultaneously with miR-K12-4 or miR-206 plasmids
Method: FIG. 7: exosomes transfer active siRNA and miRNA to target cells in a BIG2-dependent manner. (A) Exosomes purified from cells transfected with GFP siRNA or control siRNA were incubated with cells transfected with GFP. GFP expression was examined 8 hours or 24 hours later by flow cytometry. GFP expression was calculated as 1-(GFP expression GFP siRNA exosomes/GFP expression control siRNA exosomes)×100. (n=3, p<0.05, paired t-test). (B) Exosomes purified from cells transfected with miR-206 or miR-K12-4 were incubated with cells transfected with a target site for miR-K12-4 inserted into the psiCHECK dual luciferase plasmid. Activity of luciferases was measured 8 hours later. Inhibition of Firefly luciferase expression was calculated as: 1-(Firefly luciferase/Renilla luciferase miR-K12-4 exosomes)/(Firefly luciferase/Renilla luciferase miR-206 exosomes)×100. (n=4, p<0.05, paired t-test). Error bars represent standard error of the mean.
FIG. 8: Exosomes mediate transfer of miRNA activity in a BIG2-dependent manner. […] Activity of luciferases was measured after 8 hours (n=4, p=0.0287, t-test, a=0.05). […] GFP expression was measured by FACS analysis after 8 or 24 h (right). […]

T1 sequence (Q9Y6D5 whole entry): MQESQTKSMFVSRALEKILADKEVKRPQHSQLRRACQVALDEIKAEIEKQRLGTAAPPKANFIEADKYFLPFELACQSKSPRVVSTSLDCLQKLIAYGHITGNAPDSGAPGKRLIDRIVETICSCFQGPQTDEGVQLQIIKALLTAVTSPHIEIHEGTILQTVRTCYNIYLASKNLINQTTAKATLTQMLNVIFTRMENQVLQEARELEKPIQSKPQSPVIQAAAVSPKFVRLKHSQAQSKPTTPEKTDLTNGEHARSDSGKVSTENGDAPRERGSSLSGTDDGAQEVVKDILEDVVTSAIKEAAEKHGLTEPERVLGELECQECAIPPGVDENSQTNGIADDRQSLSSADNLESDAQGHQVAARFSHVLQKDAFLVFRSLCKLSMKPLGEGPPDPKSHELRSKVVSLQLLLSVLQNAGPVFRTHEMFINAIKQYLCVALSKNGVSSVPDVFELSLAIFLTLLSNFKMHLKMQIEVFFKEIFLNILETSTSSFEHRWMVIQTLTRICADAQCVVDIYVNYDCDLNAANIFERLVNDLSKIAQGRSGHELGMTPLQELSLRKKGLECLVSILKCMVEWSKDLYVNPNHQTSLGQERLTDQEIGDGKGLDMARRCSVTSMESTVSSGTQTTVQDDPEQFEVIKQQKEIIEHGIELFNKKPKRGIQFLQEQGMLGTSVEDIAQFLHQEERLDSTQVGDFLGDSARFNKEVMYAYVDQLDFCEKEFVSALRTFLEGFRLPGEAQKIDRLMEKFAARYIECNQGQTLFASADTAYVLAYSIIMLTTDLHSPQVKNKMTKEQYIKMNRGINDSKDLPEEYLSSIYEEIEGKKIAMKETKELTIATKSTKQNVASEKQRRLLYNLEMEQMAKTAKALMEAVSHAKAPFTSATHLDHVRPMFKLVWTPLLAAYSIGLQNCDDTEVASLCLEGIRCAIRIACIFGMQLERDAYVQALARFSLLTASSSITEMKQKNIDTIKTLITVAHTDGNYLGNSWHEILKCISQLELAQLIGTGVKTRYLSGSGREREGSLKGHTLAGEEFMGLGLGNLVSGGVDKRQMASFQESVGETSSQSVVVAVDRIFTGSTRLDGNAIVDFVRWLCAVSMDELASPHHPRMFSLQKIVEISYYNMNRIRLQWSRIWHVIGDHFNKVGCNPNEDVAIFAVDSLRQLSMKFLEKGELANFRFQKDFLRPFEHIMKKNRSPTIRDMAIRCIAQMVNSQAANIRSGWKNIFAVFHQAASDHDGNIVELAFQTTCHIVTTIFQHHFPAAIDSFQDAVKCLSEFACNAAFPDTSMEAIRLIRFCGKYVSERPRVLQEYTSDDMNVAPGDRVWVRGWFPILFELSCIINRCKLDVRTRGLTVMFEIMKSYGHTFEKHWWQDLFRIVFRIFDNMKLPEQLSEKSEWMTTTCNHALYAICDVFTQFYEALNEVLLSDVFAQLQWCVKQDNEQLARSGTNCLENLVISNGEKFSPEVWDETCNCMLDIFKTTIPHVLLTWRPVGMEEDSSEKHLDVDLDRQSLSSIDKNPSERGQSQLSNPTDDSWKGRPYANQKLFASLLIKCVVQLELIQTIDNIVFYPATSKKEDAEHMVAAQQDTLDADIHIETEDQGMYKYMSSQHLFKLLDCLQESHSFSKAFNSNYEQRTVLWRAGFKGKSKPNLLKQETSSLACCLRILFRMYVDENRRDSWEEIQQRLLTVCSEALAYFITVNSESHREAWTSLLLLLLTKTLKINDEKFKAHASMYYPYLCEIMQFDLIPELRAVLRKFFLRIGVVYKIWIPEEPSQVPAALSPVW

BIG2 siRNA: siRNA targeting BIG2: CGAUGAAAUUAAAGCAGAA (SEQ ID NO. 11) (listed as RNA, chemistry not given here)
recovery of proteins in exosome preparations (BIG2; RNAi of BIG2 vs control, paired t-test n=4 p=0.0194): reduces | reduction of exosome release / vesicle yield (BIG2; siRNA targeting BIG2 vs control siRNA, monocytic cells, transfection efficiency ~50%): ~50% | knockdown of miR-K12-4 reporter expression in target cells by exosomes [1]: inhibited knockdown
